For 12 compounds, T/C results are on record in PubChem BioAssay AID212 (DTP/NCI, 2004).

Molecules are shown by their SMILES. Several values for one entry are separate records, joined by “and”; a condition that tells them apart may be missing. Identical values can stand only once. Results filed as inconclusive are left out.

The assay relates to BDF1 mice, colon carcinoma 38 sc, T/C %. Put plainly: NCI In Vivo Anticancer Drug Screen. Data for tumor model Colon Carcinoma 38 (subcutaneous) in B6D2F1 (BDF1) mice. The note with it: endpoint: median tumor weight (est.), higher = larger tumour. Summed up: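 Compound antitumor activity was assessed in mice carrying transplantable tumors. Survival or tumor size was recorded, and each value is the treated-group measurement divided by that of the vehicle-treated control group.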

[1] abbreviates: dose: 12.5 mg/kg/injection, schedule: Q07DX002 (ip), vehicle: saline with Tween-80.
Setting [2] is: dose: 50.0 mg/kg/injection, schedule: Q07DX002 (ip), vehicle: saline with Tween-80.
The mark [3] stands for this setting: dose: 100.0 mg/kg/injection, schedule: Q07DX002 (ip), vehicle: saline with Tween-80.
Setting [4] is: dose: 200.0 mg/kg/injection, schedule: Q07DX002 (ip), vehicle: saline with Tween-80.
Where [5] appears, read: dose: 25.0 mg/kg/injection, schedule: Q07DX002 (ip), vehicle: saline with Tween-80.
Setting [6] is: dose: 2.5 mg/kg/injection, schedule: Q07DX002 (ip), vehicle: Klucel (hydroxypropylcellulose) (HPC).
Setting [7] is: dose: 10.0 mg/kg/injection, schedule: Q07DX002 (ip), vehicle: Klucel (hydroxypropylcellulose) (HPC).
The mark [8] stands for this setting: dose: 20.0 mg/kg/injection, schedule: Q07DX002 (ip), vehicle: Klucel (hydroxypropylcellulose) (HPC).
Where [9] appears, read: dose: 40.0 mg/kg/injection, schedule: Q07DX002 (ip), vehicle: Klucel (hydroxypropylcellulose) (HPC).
Setting [10] is: dose: 5.0 mg/kg/injection, schedule: Q07DX002 (ip), vehicle: Klucel (hydroxypropylcellulose) (HPC).
Where [11] appears, read: dose: 25.0 mg/kg/injection, schedule: Q07DX002 (ip), vehicle: Klucel (hydroxypropylcellulose) (HPC).
[12] abbreviates: dose: 50.0 mg/kg/injection, schedule: Q07DX002 (ip), vehicle: Klucel (hydroxypropylcellulose) (HPC).
The mark [13] stands for this setting: dose: 100.0 mg/kg/injection, schedule: Q07DX002 (ip), vehicle: Klucel (hydroxypropylcellulose) (HPC).

On to `CCCCCCCCCCCCCCCCCC(=O)Nc1ccn(C2OC(CO)C(O)C2O)c(=O)n1` (stereo not given), for which the T/C by setting is: under setting [1], 99 % of control; under setting [2], 35 % of control and 59 % of control; under setting [3], 25 % of control; under setting [4], 4 % of control.
For `N#Cc1nc(C#N)c(Sc2ccccc2)c(Sc2ccccc2)c1Sc1ccccc1`, the T/C (dose: 6.25 mg/kg/injection, schedule: Q07DX002 (ip), vehicle: saline with Tween-80) is 93 % of control; the T/C under setting [1] was 30 % of control; the T/C under setting [5] is 67 % of control; the T/C under setting [2] was 78 % of control; the T/C under setting [3] was 92 % of control; the T/C under setting [4] is 54 % of control.
For the compound `Cc1cc(NCCN(C(C)C)C(C)C)nc(/N=C(\N)Nc2ccc(Cl)c(C(F)(F)F)c2)n1`, the T/C by setting is: under setting [6], 89 % of control; under setting [7], 82 % of control; under setting [8], 95 % of control; under setting [9], 67 % of control.
As to `ClC(Cl)(Cl)C1=NCc2nnn(Cc3ccccc3)c2N1`, the T/C by setting is: (dose: 12.5 mg/kg/injection, schedule: Q07DX002 (ip), vehicle: distilled water + Tween-80) 116 % of control; (dose: 25.0 mg/kg/injection, schedule: Q07DX002 (ip), vehicle: distilled water + Tween-80) 80 % of control; under setting [5], 97 % of control; under setting [3], 102 % of control; (dose: 200.0 mg/kg/injection, schedule: Q07DX002 (ip), vehicle: distilled water + Tween-80) 80 % of control; (dose: 400.0 mg/kg/injection, schedule: Q07DX002 (ip), vehicle: saline with Tween-80) 155 % of control.
Regarding `CC[C@@]1(O)C[C@H](OC2CC(N(C)C)C(OC3CC(O)C(OC4CCC(=O)C(C)O4)C(C)O3)C(C)O2)c2c(cc3c(c2O)C(=O)c2c(O)ccc(O)c2C3=O)[C@H]1C(=O)OC` (stereo not given in full), the T/C is 78 % of control (dose: 0.5 mg/kg/injection, schedule: Q07DX002 (ip), vehicle: water); 100 % of control (dose: 0.5 mg/kg/injection, schedule: Q07DX003 (ip), vehicle: water); 47 % of control (dose: 1.0 mg/kg/injection, schedule: Q07DX002 (ip), vehicle: water); 111 % of control (dose: 1.0 mg/kg/injection, schedule: Q07DX003 (ip), vehicle: water); 84 % of control (dose: 2.0 mg/kg/injection, schedule: Q07DX002 (ip), vehicle: water); 79 % of control (dose: 2.0 mg/kg/injection, schedule: Q07DX003 (ip), vehicle: water). For the same compound, the T/C (dose: 4.0 mg/kg/injection, schedule: Q07DX002 (ip), vehicle: water) is 44 % of control; the T/C (dose: 4.0 mg/kg/injection, schedule: Q07DX003 (ip), vehicle: water) was 46 % of control; the T/C (dose: 8.0 mg/kg/injection, schedule: Q07DX002 (ip), vehicle: water) is 47 % of control.
`CCCC(=O)OC1C=C2N3C(=O)C4CC56C(=CC(OC(C)=O)C7OC75)N4C(=O)C3CC26C2OC12` (stereo not given): the T/C is 111 % of control (dose: 1.25 mg/kg/injection, schedule: Q07DX002 (ip), vehicle: Klucel (hydroxypropylcellulose) (HPC)); 92 % of control under setting [6]; 102 % of control under setting [10]; 76 % of control under setting [7].
For the compound `C[Si](C)(C)OSc1ccccc1[N+](=O)[O-]`, the T/C was 118 % of control under setting [11]; 113 % of control under setting [12]; 110 % of control under setting [13]; 86 % of control (dose: 800.0 mg/kg/injection, schedule: Q07DX002 (ip), vehicle: Klucel (hydroxypropylcellulose) (HPC)).
Consider `O=C(NO)c1ccc(O)c(O)c1`, for which the T/C was 88 % of control (dose: 50.0 mg/kg/injection, schedule: Q07DX002 (ip), vehicle: water); 92 % of control (dose: 100.0 mg/kg/injection, schedule: Q07DX002 (ip), vehicle: water); 85 % of control (dose: 200.0 mg/kg/injection, schedule: Q07DX002 (ip), vehicle: water); 48 % of control (dose: 400.0 mg/kg/injection, schedule: Q07DX002 (ip), vehicle: water).
Consider `COc1cc2cc(c1Cl)N(C)C(=O)C[C@H](OC(=O)[C@H](C)N(C)C(C)=O)[C@]1(C)O[C@H]1[C@H](C)[C@@H]1C[C@@](O)(NC(=O)O1)[C@H](OC)C=C/C=C(\C)C2`, for which the T/C (dose: 0.01 mg/kg/injection, schedule: Q07DX003 (ip), vehicle: Klucel (hydroxypropylcellulose) (HPC)) was 99 % of control; the T/C (dose: 0.03 mg/kg/injection, schedule: Q07DX003 (ip), vehicle: Klucel (hydroxypropylcellulose) (HPC)) was 114 % of control; the T/C (dose: 0.06 mg/kg/injection, schedule: Q07DX003 (ip), vehicle: Klucel (hydroxypropylcellulose) (HPC)) was 84 % of control; the T/C (dose: 0.12 mg/kg/injection, schedule: Q07DX003 (ip), vehicle: Klucel (hydroxypropylcellulose) (HPC)) was 73 % of control; the T/C (dose: 0.25 mg/kg/injection, schedule: Q07DX003 (ip), vehicle: Klucel (hydroxypropylcellulose) (HPC)) is 164 % of control; the T/C (dose: 0.5 mg/kg/injection, schedule: Q07DX003 (ip), vehicle: Klucel (hydroxypropylcellulose) (HPC)) was 67 % of control. Further, the T/C reads like this: (dose: 30.0 micrograms/kg/injection, schedule: Q07DX003 (ip), vehicle: Klucel (hydroxypropylcellulose) (HPC)) 116 % of control; (dose: 125.0 micrograms/kg/injection, schedule: Q07DX003 (ip), vehicle: Klucel (hydroxypropylcellulose) (HPC)) 120 % of control; (dose: 250.0 micrograms/kg/injection, schedule: Q07DX003 (ip), vehicle: Klucel (hydroxypropylcellulose) (HPC)) 90 % of control; (dose: 500.0 micrograms/kg/injection, schedule: Q07DX003 (ip), vehicle: Klucel (hydroxypropylcellulose) (HPC)) 75 % of control; (dose: 1000.0 micrograms/kg/injection, schedule: Q07DX003 (ip), vehicle: Klucel (hydroxypropylcellulose) (HPC)) 57 % of control.
Turning to `Nc1ccc2nc3ccc(N)cc3[n+](-c3ccccc3)c2c1`, the T/C (dose: 2.0 mg/kg/injection, schedule: Q07DX002 (ip), vehicle: saline) was 95 % of control; the T/C (dose: 4.0 mg/kg/injection, schedule: Q07DX002 (ip), vehicle: saline) is 74 % of control; the T/C (dose: 4.0 mg/kg/injection, schedule: Q07DX003 (ip), vehicle: saline) is 28 % of control; the T/C (dose: 8.0 mg/kg/injection, schedule: Q07DX002 (ip), vehicle: saline) was 96 % of control; the T/C (dose: 8.0 mg/kg/injection, schedule: Q07DX003 (ip), vehicle: saline) is 43 % of control; the T/C (dose: 16.0 mg/kg/injection, schedule: Q07DX002 (ip), vehicle: saline) was 72 % of control. In addition, the T/C was 46 % of control (dose: 16.0 mg/kg/injection, schedule: Q07DX003 (ip), vehicle: saline); 97 % of control (dose: 32.0 mg/kg/injection, schedule: Q07DX002 (ip), vehicle: saline); 43 % of control (dose: 32.0 mg/kg/injection, schedule: Q07DX003 (ip), vehicle: saline).
For the compound `c1ccc2c(NCCCCCCCCNc3c4ccccc4nc4ccccc34)c3ccccc3nc2c1`, the T/C is 109 % of control and 101 % of control under setting [10]; 78 % of control and 93 % of control under setting [7]; 75 % of control and 77 % of control under setting [8]; 72 % of control and 87 % of control under setting [9]; 79 % of control and 100 % of control (dose: 80.0 mg/kg/injection, schedule: Q07DX002 (ip), vehicle: Klucel (hydroxypropylcellulose) (HPC)).
Take `O=S(=O)(SC(S(=O)(=O)c1ccccc1)S(=O)(=O)c1ccccc1)c1ccccc1`: the T/C was 174 % of control under setting [11]; 199 % of control under setting [12]; 113 % of control under setting [13]; 115 % of control (dose: 400.0 mg/kg/injection, schedule: Q07DX002 (ip), vehicle: Klucel (hydroxypropylcellulose) (HPC)).
